Laboratory results reported in patent US20190151315A1, “Drug For Preventing Or Treating Lactic Acidosis” (KEIO UNIVERSITY, priority 2016, published 2019).

What was measured:
Format in all cases: in vivo, mouse (C57BL/6)
[1] = tested on: MALA-complicated CKD model mice; assay: Survival analysis in MALA-complicated chronic kidney disease (CKD) model mice, Compound B (Test Example 3); conditions: for survival rate as compared to vehicle alone: 30 mg/kg oral
Excerpt: (§1) All mice used in Examples were 7- to 13-week-old wild-type C57BL/6 male mice obtained from CLEA Japan, Inc. The mice were fed ad libitum on a 12-hour light/12-hour dark cycle in a specific pathogen-free facility.
(§2) In statistical analysis in Examples, power calculation for determining a sample size was not performed. Mice that died of lactic acidosis before treatment with a vehicle or Compound A were excluded from mice to be analyzed. For a comparison of normally distributed data between groups, analysis was performed using unpaired Student's t-test. A difference in survival rate was analyzed by log-rank (Mantel-Cox) test through use of GraphPad Prism software.
(§3) 7-Week-old wild-type C57BL/6 male mice were fed ad libitum with a standard or 0.2% adenine feed for 6 weeks. The population fed with the 0.2% adenine feed was used as CKD model mice.
(§4) Further, the CKD model mice were administered with 0.5 mg/g body weight of metformin on day 1 to produce a MALA-complicated CKD mouse model. After 4 hours from the metformin administration, a whole blood sample (5 μl) was collected from the tail vein, and a blood lactate level was measured using Lactate Pro Test Meter and Lactate Pro Test Strip (Cycle Classic Imports). […] Kaplan-Meier survival analysis was performed for those mice.

[2] = tested on: MALA model mice; assay: Survival analysis in metformin-associated lactic acidosis (MALA) model mice (Test Example 1); conditions: for survival rate as compared to vehicle alone: 30 mg/kg oral
Excerpt: as §1, §2
In the morning and evening of day 1, and the morning of day 2, 0.25 mg/g body weight of metformin dissolved in distilled water was orally administered to 8-week-old wild-type C57BL/6 male mice to produce MALA model mice. Immediately after the metformin administration to the model mice on day 2, a vehicle (0.5% methyl cellulose; 64625; Sigma-Aldrich) or 30 mg/kg body weight of Compound A (produced in Example 1) was orally administered. After 4 hours from the oral administration, the model mice were administered with 0.4 mg/g body weight of lactic acid dissolved in 0.9% NaCl by intraperitoneal injection. Kaplan-Meier survival analysis was performed for those mice.

[3] = tested on: MALA-complicated CKD model mice; assay: Survival analysis in MALA-complicated chronic kidney disease (CKD) model mice, Compound A (Test Example 2); conditions: for survival rate as compared to vehicle alone: 10 mg/kg oral
Excerpt: as §1, §2, §3, §4

SMILES	survival rate as compared to vehicle alone (Kaplan-Meier, FIG. 3) ([1]; 30 mg/kg body weight oral, single, mice with blood lactate more than 8 mM after metformin 0.5 mg/g)	survival rate as compared to vehicle alone ([1]; after 24 hours)	survival rate as compared to vehicle alone ([1]; after 48 hours)	survival rate as compared to vehicle alone ([1]; after 72 hours)	survival rate as compared to vehicle alone (Kaplan-Meier, FIG. 1) ([2]; 30 mg/kg body weight oral, single, metformin 0.25 mg/g x3, lactic acid 0.4 mg/g i.p. after 4 hours)	survival rate as compared to vehicle alone ([2]; after 24 hours)	survival rate as compared to vehicle alone ([2]; after 48 hours)	survival rate as compared to vehicle alone ([2]; after 72 hours)	survival rate as compared to vehicle alone ([2]; after 96 hours)	survival rate as compared to vehicle alone ([2]; after 120 hours)	survival rate as compared to vehicle alone (Kaplan-Meier, FIG. 2) ([3]; 10 mg/kg body weight oral, single, mice with blood lactate more than 8 mM after metformin 0.5 mg/g)	survival rate as compared to vehicle alone ([3]; after 24 hours)	survival rate as compared to vehicle alone ([3]; after 48 hours)	survival rate as compared to vehicle alone ([3]; after 72 hours)
Cc1nc(CC2CCN(c3ccc(-c4ccc(C[C@H](C)O)cc4)cc3)CC2)nc(C(=O)NCC(=O)O)c1O [Compound B, [({5-hydroxy-2-[(1-{4′-[(2S)-2-hydroxypropyl]biphenyl-4-yl}piperidin-4-yl)methyl]-6-methylpyrimidin-4-yl}carbonyl)amino]acetic acid]	significantly high survival rate	about 1.7 fold	about 2.0 fold	about 2.0 fold										
Cc1nc(CC2CCN(c3ccc(-c4ccc(CO)cc4)cc3)CC2)nc(C(=O)NCC(=O)O)c1O [Compound A, ({[5-hydroxy-2-({1-[4′-(hydroxymethyl)biphenyl-4-yl]piperidin-4-yl}methyl)-6-methylpyrimidin-4-yl]carbonyl}amino)acetic acid]					significantly high survival rate	about 1.8 fold	about 2.8 fold	about 2.6 fold	about 2.4 fold	about 2.6 fold	significantly high survival rate	about 2.9 fold	about 5.8 fold	about 5.8 fold
